The results in this text go back to paper PMC6625639 (Biochemical pharmacology, 2018).

For orientation: Ki means a dissociation constant, usually derived from enzyme kinetics or from competition with a known ligand. The low end stands for higher affinity, the high end for lower affinity.

The target of assay [1] is T1, SULT2A1 (Homo sapiens, UniProt Q06520).
T1 sequence (Q06520 1-285): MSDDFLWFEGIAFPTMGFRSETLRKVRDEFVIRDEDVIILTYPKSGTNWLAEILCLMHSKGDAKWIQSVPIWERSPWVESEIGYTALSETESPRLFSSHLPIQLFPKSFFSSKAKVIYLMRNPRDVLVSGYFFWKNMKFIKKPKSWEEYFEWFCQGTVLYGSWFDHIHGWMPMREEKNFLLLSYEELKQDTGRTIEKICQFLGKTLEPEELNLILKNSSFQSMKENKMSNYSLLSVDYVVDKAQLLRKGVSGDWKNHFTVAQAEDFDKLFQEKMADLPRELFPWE
It is filed as biochemical.

Assay [2] deals with SULT1A1 (Homo sapiens, UniProt P50225). It is filed as biochemical.
Sequence of SULT1A1 (P50225 whole entry): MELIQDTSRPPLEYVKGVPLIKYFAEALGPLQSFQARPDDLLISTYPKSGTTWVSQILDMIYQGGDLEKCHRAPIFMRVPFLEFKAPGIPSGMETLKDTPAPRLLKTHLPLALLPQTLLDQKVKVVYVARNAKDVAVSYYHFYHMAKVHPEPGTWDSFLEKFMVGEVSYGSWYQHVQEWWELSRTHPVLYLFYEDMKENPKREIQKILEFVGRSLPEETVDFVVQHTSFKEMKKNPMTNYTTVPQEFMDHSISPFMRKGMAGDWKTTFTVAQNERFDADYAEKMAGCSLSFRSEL

In the case of `Cc1cccc(Nc2ccccc2C(=O)O)c1C` [Mef, Mefenamic acid], the Ki in assay [1] came to 14 µM; in assay [2], 0.027 µM.
